Measurements from ChEMBL document CHEMBL1201862, “PubChem BioAssay data set” (2004).
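Grown in 96-well plates, cells were treated for 48 hours with each compound at five concentrations. Insufficient inhibition: endpoint recorded as highest concentration tested. GI50 marks 50% less growth.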 Active and inactive are the calls of the source. Rule as the data show it: active = GI50 up to about 1.1 µM and inactive = higher. Where a SMILES comes first, the peptide text is derived from it. The star is where a group is joined. Boc = CC(C)(C)OC(=O)*; tBu = CC(C)(C)*

Assays:
Test in all cases: DTP human tumour cell line panel, 48 h
[1] = test system: SW-620
[2] = test system: IGROV-1
[3] = test system: SN12C
[4] = test system: HCT-116
[5] = test system: COLO 205
[6] = test system: CAKI-1
[7] = test system: U-251
[8] = test system: NCI-H460
[9] = test system: SR
[10] = test system: UACC-62
[11] = test system: MDA-MB-435
[12] = test system: K562
[13] = test system: 786-0
[14] = test system: OVCAR-4
[15] = test system: EKVX
[16] = test system: A549
[17] = test system: BT-549
[18] = test system: A498

Compound	GI50 [1]	GI50 [2]	GI50 [3]	GI50 [4]	GI50 [5]	GI50 [6]	GI50 [7]	GI50 [8]	GI50 [9]	GI50 [10]	GI50 [11]	GI50 [12]	GI50 [13]	GI50 [14]	GI50 [15]	GI50 [16]	GI50 [17]	GI50 [18]
CCC(=O)N1C(=O)C(CC)(CC)C(=O)N1C(=O)CC	> 100 µM (inactive)	> 100 µM (inactive)	> 100 µM (inactive)	> 100 µM (inactive)	> 100 µM (inactive)	> 100 µM (inactive)	> 100 µM (inactive)	> 100 µM (inactive)	> 100 µM (inactive)	> 100 µM (inactive)	> 100 µM (inactive)	> 100 µM (inactive)	> 100 µM (inactive)	> 100 µM (inactive)	> 100 µM (inactive)	> 100 µM (inactive)	> 100 µM (inactive)	–
O=c1c(S(=O)(=O)Oc2ccccc2)coc2cc(F)ccc12	> 100 µM (inactive)	> 100 µM (inactive)	> 100 µM (inactive)	> 100 µM (inactive)	–	> 100 µM (inactive)	> 100 µM (inactive)	> 100 µM (inactive)	> 100 µM (inactive)	60 µM (inactive)	> 100 µM (inactive)	> 100 µM (inactive)	> 100 µM (inactive)	> 100 µM (inactive)	> 100 µM (inactive)	> 100 µM (inactive)	37.2 µM (inactive)	–
CC(OC(C)(C)C)C(NC(=O)C(N)CCCCNC(=O)OC(C)(C)C)C(=O)NC(Cc1ccccc1)C(=O)O (centres undefined) (H-Lys(Boc)-Thr(tBu)-Phe-OH; configuration not given here)	> 100 µM (inactive)	> 100 µM (inactive)	> 100 µM (inactive)	> 100 µM (inactive)	> 100 µM (inactive)	> 100 µM (inactive)	> 100 µM (inactive)	> 100 µM (inactive)	> 100 µM (inactive)	> 100 µM (inactive)	> 100 µM (inactive)	> 100 µM (inactive)	> 100 µM (inactive)	> 100 µM (inactive)	> 100 µM (inactive)	> 100 µM (inactive)	> 100 µM (inactive)	–
Cc1ccc(C(=O)C#Cc2cn(C3CC(O)C(CO)O3)c(=O)[nH]c2=O)cc1 (centres undefined)	31 µM (inactive)	> 100 µM (inactive)	> 100 µM (inactive)	62.2 µM (inactive)	38.6 µM (inactive)	90.2 µM (inactive)	> 100 µM (inactive)	> 100 µM (inactive)	35.2 µM (inactive)	> 100 µM (inactive)	> 100 µM (inactive)	–	> 100 µM (inactive)	95.9 µM (inactive)	> 100 µM (inactive)	> 100 µM (inactive)	> 100 µM (inactive)	–
Cc1nn(C(=O)c2ccncc2)c2c1C(c1ccccc1)SC(=N)N2 (centres undefined)	> 10 µM (inactive)	> 10 µM (inactive)	> 10 µM (inactive)	> 10 µM (inactive)	> 10 µM (inactive)	> 10 µM (inactive)	> 10 µM (inactive)	> 10 µM (inactive)	> 10 µM (inactive)	> 10 µM (inactive)	> 10 µM (inactive)	> 10 µM (inactive)	> 10 µM (inactive)	> 10 µM (inactive)	> 10 µM (inactive)	> 10 µM (inactive)	> 10 µM (inactive)	–
CC12CCCC3(CC(=O)C(C)(C)C3C(=O)C1)C2 (centres undefined)	> 100 µM (inactive)	> 100 µM (inactive)	> 100 µM (inactive)	> 100 µM (inactive)	> 100 µM (inactive)	> 100 µM (inactive)	> 100 µM (inactive)	> 100 µM (inactive)	> 100 µM (inactive)	> 100 µM (inactive)	> 100 µM (inactive)	> 100 µM (inactive)	> 100 µM (inactive)	> 100 µM (inactive)	> 100 µM (inactive)	> 100 µM (inactive)	> 100 µM (inactive)	–
Cc1cccc(C)c1Nc1nc(C)c(C(=O)CC(=O)C(=O)Nc2c(C(C)C)cccc2C(C)C)s1	> 100 µM (inactive)	> 100 µM (inactive)	> 100 µM (inactive)	> 100 µM (inactive)	> 100 µM (inactive)	> 100 µM (inactive)	> 100 µM (inactive)	> 100 µM (inactive)	69.3 µM (inactive)	> 100 µM (inactive)	> 100 µM (inactive)	> 100 µM (inactive)	> 100 µM (inactive)	> 100 µM (inactive)	> 100 µM (inactive)	> 100 µM (inactive)	> 100 µM (inactive)	–
CNN1C(=O)c2c(C)c(C)c(C#N)c(N)c2C1=O	> 100 µM (inactive)	> 100 µM (inactive)	> 100 µM (inactive)	> 100 µM (inactive)	> 100 µM (inactive)	> 100 µM (inactive)	> 100 µM (inactive)	> 100 µM (inactive)	> 100 µM (inactive)	> 100 µM (inactive)	> 100 µM (inactive)	> 100 µM (inactive)	> 100 µM (inactive)	> 100 µM (inactive)	> 100 µM (inactive)	> 100 µM (inactive)	> 100 µM (inactive)	–
CC(=O)Oc1ccc2cc(-c3ccccc3OC(C)=O)c(=O)oc2c1	64.6 µM (inactive)	–	76 µM (inactive)	66.5 µM (inactive)	> 100 µM (inactive)	–	34 µM (inactive)	86.5 µM (inactive)	7.69 µM (inactive)	–	10.9 µM (inactive)	38 µM (inactive)	25.6 µM (inactive)	18.3 µM (inactive)	25.2 µM (inactive)	32.1 µM (inactive)	4.17 µM (inactive)	40.7 µM (inactive)
CCOC(=O)C(NC(=O)c1ccccc1)(Nc1ccc(S(=O)(=O)Nc2ncccn2)cc1)C(F)(F)F (centres undefined)	> 100 µM (inactive)	> 100 µM (inactive)	> 100 µM (inactive)	> 100 µM (inactive)	> 100 µM (inactive)	> 100 µM (inactive)	> 100 µM (inactive)	> 100 µM (inactive)	> 100 µM (inactive)	> 100 µM (inactive)	> 100 µM (inactive)	> 100 µM (inactive)	> 100 µM (inactive)	> 100 µM (inactive)	> 100 µM (inactive)	> 100 µM (inactive)	> 100 µM (inactive)	–
CCNCCNc1c2ccccc2nc2ccccc12	0.147 µM (active)	1.88 µM (inactive)	0.938 µM (active)	0.515 µM (active)	0.822 µM (active)	0.698 µM (active)	–	0.453 µM (active)	0.594 µM (active)	1.49 µM (inactive)	1.21 µM (inactive)	0.551 µM (active)	0.791 µM (active)	1.14 µM (inactive)	2.44 µM (inactive)	1.56 µM (inactive)	2.84 µM (inactive)	–
COCCn1cnc2c(Cl)nc(Nc3ccccc3)nc21	32.3 µM (inactive)	21.2 µM (inactive)	26.4 µM (inactive)	27.7 µM (inactive)	76.2 µM (inactive)	–	32.7 µM (inactive)	82.4 µM (inactive)	26.2 µM (inactive)	25.6 µM (inactive)	18.1 µM (inactive)	25.9 µM (inactive)	69.2 µM (inactive)	22 µM (inactive)	21.3 µM (inactive)	48.8 µM (inactive)	27.4 µM (inactive)	59.4 µM (inactive)
